# Experimental data as given in PMC8840081, “Phenylalanine-Based AMPA Receptor Antagonist as the Anticonvulsant Agent with Neuroprotective Activity—In Vitro and In Vivo Studies” (Molecules, 2022).
# pKi: −log10 of the molar value.
# How the values were obtained:
# [1] = target: native AMPA receptors; conditions: native AMPA receptors, rat brain membranes, mean of three experiments, cited from earlier work
# [2] = target: T1, Human MAO-B (Homo sapiens, UniProt P27338); assay: MAO-B inhibition, Amplex Red Monoamine Oxidase kit; format: biochemical; conditions: 1 µM compound; % of full inhibition (pargyline 10 µM)
# T1 construct: purchased Merck KGaA (Darmstadt, Germany)
# T1 sequence (P27338 1-520): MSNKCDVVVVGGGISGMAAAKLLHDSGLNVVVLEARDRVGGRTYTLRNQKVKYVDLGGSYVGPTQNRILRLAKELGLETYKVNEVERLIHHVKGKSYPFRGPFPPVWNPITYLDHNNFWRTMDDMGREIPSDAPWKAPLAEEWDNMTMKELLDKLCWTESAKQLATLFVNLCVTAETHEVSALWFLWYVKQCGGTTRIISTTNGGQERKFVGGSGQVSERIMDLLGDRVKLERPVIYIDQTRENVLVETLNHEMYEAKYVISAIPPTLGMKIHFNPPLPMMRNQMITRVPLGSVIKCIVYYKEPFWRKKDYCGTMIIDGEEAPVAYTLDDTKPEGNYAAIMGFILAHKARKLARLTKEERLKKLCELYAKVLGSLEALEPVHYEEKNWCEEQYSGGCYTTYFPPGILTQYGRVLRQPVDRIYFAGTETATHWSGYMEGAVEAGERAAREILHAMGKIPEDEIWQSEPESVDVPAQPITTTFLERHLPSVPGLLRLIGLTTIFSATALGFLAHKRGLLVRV
# Description: Human MAO-B was purchased from Merck KGaA (Darmstadt, Germany). The activity of compound 1 and 8 was measured in the presence of p-tyramine (200 μM). […] Firstly, inhibitors’ activity was measured in a concentration of 1 μM. […] For compounds that inhibited the enzyme by more than 50% further studies were conducted to obtain IC50 from concentration–response curves. All calculations were made in Microsoft Excel and GraphPadPrism software. All experiments were performed in duplicate and data are expressed as mean ± SEM.
# [3] = tested on: SH-SY5Y neuroblastoma cells; assay: cell viability, MTS assay; format: cell-based, human; conditions: 24 h incubation, 1–100 µM
# Description: (§1) All cell culture protocols and assay conditions were applied as we reported previously. SH-SY5Y (ATCC® CRL-2266™) cell line was purchased from ATCC (Manassas, VA, USA). IMR-32 (ATCC® CCL-127™) cell line was kindly provided by the Department of Oncogenomics, Academisch Medisch Centrum, Amsterdam, Holland. Before each test SH-SY5Y or IMR-32 cells were seeded in 96-well plates with transparent bottom at a concentration of 2.5 × 10^4 cells/well in 100 μL of respective cell culture medium and cultured for 24 h to reach 70% confluence. • Cell Viability
# (§2) The CellTiter 96® AQueous Non-Radioactive Cell Proliferation Assay was purchased from Promega (Madison, WI, USA). After 24 h of cells incubation with compound 1 or 8 in the concentrations range 1–100 µM the MTS-based labeling mixture was added to each well and cells were incubated under the same conditions for 2–3 h. The absorbance was measured using a microplate reader EnSpire (PerkinElmer, Waltham, MA, USA) at 490 nm. All measurements were performed in triplicate and results are shown as mean ± SD. • Lactate Dehydrogenase Test
# [4] = tested on: IMR-32 neuroblastoma cells; assay: cell viability, MTS assay; format: cell-based, human; conditions: IMR-32, 24 h incubation, 1–100 µM
# Description: as §1, §2
# [5] = ferric reducing antioxidant power (FRAP) assay; conditions: % of ascorbic acid activity; compounds and AA at 1 mM
# Description: The total antioxidant potential of aryl-substituted phenylalanine derivatives was determined using FRAP assay. The FRAP reagent was prepared first by mixing acetate buffer (300 mM, pH 3.6), a solution of 10 mM TPTZ (2,4,6-tripyridyl-s-triazine, Sigma-Aldrich, Inc., St. Louis, MO, USA) in 40 mM HCl and 20 mM of iron (III) chloride hexahydrate (FeCl3 × 6H2O, Chempur, Piekary Śląskie, Poland) at 10:1:1 (v/v/v). The FRAP reagent (190 μL) and 1 mM of tested compound (10 μL) was added next to each well, mixed and incubated for 30 min. The absorbance was measured using a microplate reader EnSpire (PerkinElmer, Waltham, MA USA) at 593 nm. AA (1 mM, AMARA, Kraków, Poland) was used as the reference antioxidant. The results were expressed as % of ascorbic acid activity (%AAA). Analyses were performed in triplicate. • ORAC-FL
# [6] = tested on: SH-SY5Y cells; assay: ROS assay (DCFH-DA), H2O2-induced ROS accumulation; format: cell-based, human; conditions: compound 50 µM, 500 µM H2O2, 3 h
# Description: as §1
# During this assay SH-SY5Y cells were preincubated first for 1 h with 250 μM solution of DCFH-DA (Sigma-Aldrich, Inc., St. Louis, MO, USA) in HBSS buffer. After DCFH-DA was removed, cells were washed with HBSS and incubated next for 1 h with 50 μM of compound 1 or 8. Next, the H2O2 was added at final concentration 500 μM. After 3 h of incubation, the fluorescence was measured using a microplate reader EnSpire (PerkinElmer, Waltham, MA, USA) with an excitation wavelength of 486 nm and emission wavelength of 530 nm. All measurements were performed in triplicate and results are shown as mean ± SD.
# [7] = tested on: SH-SY5Y neuroblastoma cells; assay: neuroprotection against 6-OHDA-induced LDH release; format: cell-based, human; conditions: compound 50 µM
# Description: as §1
# (§3) CytoTox-ONE™ Homogeneous Membrane Integrity Assay, which based on the LDH release, was purchased from Promega (Madison, WI, USA). SH-SY5Y or IMR-32 cells were seeded in 96-well white plates with transparent bottom. For neuroprotective studies, the cells were preincubated first for 1 h with compound 1, 8 or reference antioxidants AA, TX (all at the concentration of 50 μM) and next the neurotoxin 6-OHDA (Sigma-Aldrich, Inc., St. Louis, MO, USA) was added at final concentration of 50 μM (SH-SY5Y assay) or 200 µM (IMR-32 assay). After 24 h of incubation, the CytoTox-ONE™ was added to each well and the cells were incubated next for 10 min at room temperature. The fluorescence was measured using a microplate reader EnSpire (PerkinElmer, Waltham, MA, USA) with an excitation wavelength of 560 nm and an emission wavelength of 590 nm. All measurements were performed in triplicate and results are shown as mean ± SD. The similar studies were also performed with SH-SY5Y cells injured by 100 μM of 6-OHDA (Figure S1, Supporting Materials). • ROS Assay
# [8] = tested on: IMR-32 neuroblastoma cells; assay: neuroprotection against 6-OHDA-induced LDH release; format: cell-based, human; conditions: IMR-32, compound 50 µM, 1 h pretreatment, 200 µM 6-OHDA, 24 h
# Description: as §1, §3
# [9] = oxygen radical absorbance capacity fluorescent (ORAC-FL) assay; conditions: Trolox equivalent, calculated at 5 µM of compounds and Trolox
# Description: The ORAC-FL was performed according to procedure described in the literature. The reagents used in this assay, TX, fluorescein and 2,2′-azobis(2-amidinopropane) dihydrochloride (AAPH), were purchased from Sigma-Aldrich, Inc., St. Louis, MO, USA. The prepared ORAC-FL reagent consisted of 0.3 μM of fluorescein and 100 µM of AAPH dissolved in PBS buffer. The compounds and the reference antioxidant TX were tested at the concentration 2.5 µM and the results were compared to the blank in which no antioxidant was present. The assays were performed in black 96-well plates. The fluorescence readings were taken by a microplate reader EnSpire (PerkinElmer, Waltham, MA, USA) every minute for a duration of 240 min. The excitation wavelength was 485 nm and the emission wavelength was 520 nm. The area under the fluorescence decay curve (AUC) was calculated next by GraphPad Prism™ software (version 5.01, San Diego, CA, USA). All measurements were performed in triplicate. The TX equivalent (TE) was calculated next using the following Equation (1):TE = [(AUCsample − AUCblank)/(AUCTX − AUCblank)] × [CTX/Csample](1)
compound,measurement,setting,value
Nc1c(Cl)cc(CC(N)C(=O)O)cc1-c1ccc(O)cc1 (centres unmarked) [Compound 8],[3H]AMPA Ki,[1],lack of detectable AMPA receptor affinity
same,pKi,[1]; read-out: [3H]AMPA Ki,< 4.00
same,"MAO-B inhibition, screening",[2],No inhibitory activity
same,cell viability,[3],no influence on cell viability
same,cell viability,[4],no influence on cell viability
same,FRAP (%AAA),[5],48.19 %AAA
same,intracellular ROS level,[6],statistically significant decrease
same,6-OHDA-induced release of LDH (neuroprotection),[7]; 100 µM 6-OHDA,neuroprotective effect was not observed
same,6-OHDA-induced release of LDH (neuroprotection),"[7]; 1 h pretreatment, 50 µM 6-OHDA, 24 h",no statistically significant neuroprotective effect
same,6-OHDA-induced release of LDH (neuroprotection),[8],no statistically significant neuroprotective effect
same,ORAC (TE),[9],7.56 TE
